# Assay results: patent US20150368248A1, “2-SUBSTITUTED-6-BIARYLMETHYLAMINO-9-CYCLOPENTYL-9H-PURINE DERIVATIVES, USE THEREOF AS MEDICAMENTS, AND PHARMACEUTICAL COMPOSITIONS” (UNIVERZITA PALACKEHO V OLOMOUCI, priority 2013, published 2015)
# Like-named read-outs stand apart in the source and are kept apart here.
# Columns and labels:
# [1] = tested on: human umbilical vein endothelial cells (HUVEC); assay: HUVEC proliferation, Calcein AM; format: cell-based; conditions: Homo sapiens, HUVEC, read-out: Inhibitory concentration for HUVEC cells - IC50
# Summary of the method: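 Confluent HUVECs seeded in 96-well plates and exposed to compound for 24 or 72 h. Proliferation read by Calcein AM fluorescence.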
# [2] = biological target: T1, CDK1/cyclin B (Homo sapiens, UniProt P06493); assay: Kinase inhibition assay, recombinant kinase, [γ-33P]ATP; format: biochemical
# T1 construct: made in house; host or cells: Sf9 insect cells (baculovirus)
# Protocol: CDK2/Cyclin E kinase was produced in Sf9 insect cells via baculoviral infection and purified on a NiNTA column (Qiagen). CDK5/p35, CDK7Cyclin H/MAT1 and CDK9/Cyclin T1 was purchased from ProQinase GmbH. […] The reactions were stopped by adding 5 μL of 3% aq H3PO4. Aliquots were spotted onto P-81 phosphocellulose (Whatman), washed 3× with 0.5% aq H3PO4 and finally air-dried.
# (§1) CDK1/cyclin B and CDK2/cyclin E kinases were produced in Sf9 insect cells via baculoviral infection, while CDK5/p35, CDK7/cyclin H/MAT1, and CDK9/cyclin T1 were purchased from ProQinase (Freiburg, Germany) and assayed as described previously (35). The kinase reactions were assayed with 1 mg/ml histone H1 (for CDK2 and CDK5) or (YSPTSPS)2KK peptide (for CDK7 and CDK9) in the presence of 15/0.15/1.5/1.5 […] ATP (for CDK2/CDK5/CDK7CDK9), […] [γ-^33P]ATP and of the test compound in a final volume of […]. The reaction buffer contained 60 mM HEPES-NaOH, pH 7.5, 3 mM MgCl2, 3 mM MnCl2, 3 mM Na-orthovanadate, 1.2 mM DTT, 2.5 mg/50 ml PEG20.000. The reactions were stopped by adding […] of 3% H3PO4. Aliquots were spotted onto P-81 phosphocellulose (Whatman, GE Healthcare Biosciences, Pittsburgh, USA), washed 3 times with 0.5% H3PO4 and finally air-dried. Kinase inhibition was quantified using a FLA-7000 digital image analyzer (Fujifilm, Tokyo, Japan).
# [3] = tested on: human umbilical vein endothelial cells (HUVECs); assay: Migration scratch assay; format: cell-based; design: key to Wound area: ++: open; +: partly open; 0: closed; conditions: 24 h
# Protocol: Migration assay was performed as described previously (Krystof et al., 2011, Eur J Med Chem.; 46(9):4289-94). Briefly, confluent HUVECs were scratched and immediately treated for 24 h with various doses of compounds. After incubation each well was photographed using a DP Controller system (Olympus) connected to a Olympus BX50 microscope. Migration was expressed as the proportion of pixels of the wound area in the image that were not covered by cells using “in house” software.
# [4] = tested on: caspase-3/7 activity in PLC/PRF/5 cell line; assay: One-step cellular caspase-3/7 activity assay; format: cell-based, human; conditions: 24 hours incubation, relative to 0 nM = 1.00
# Summary of the method: (§2)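 Hep3B or PLC/PRF/5 cells, plated overnight, were exposed to compounds for 24 h. Lysis buffer containing 150 μM Ac-DEVD-AMC substrate was added, and plates were incubated at 37° C. Caspase-3/7 activity was read as AMC fluorescence (ex 346/em 442 nm) after 6 h.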
# [5] = tested on: caspase-3/7 activity in Hep3B cell line; assay: One-step cellular caspase-3/7 activity assay; format: cell-based, human; conditions: 24 hours, 0 nM = 1.00
# Summary of the method: as §2
# [6] = biological target: T2, CDK7/cyclin H/MAT1 (Homo sapiens, UniProt P50613); assay: Kinase inhibition assay, recombinant kinase, [γ-33P]ATP; format: biochemical; conditions: read-out: Residual kinase activity, CDK7; for remaining activity at 0.1 µM: 100 nM; for remaining activity at 1 µM: 1000 nM
# T2 construct: purchased ProQinase GmbH (Freiburg, Germany)
# Protocol: (§3) CDK2/Cyclin E kinase was produced in Sf9 insect cells via baculoviral infection and purified on a NiNTA column (Qiagen). CDK5/p35, CDK7Cyclin H/MAT1 and CDK9/Cyclin T1 was purchased from ProQinase GmbH. The kinase reactions were assayed with 1 mg/mL histone H1 (for CDK2 and CDK5) or (YSPTSPS)2KK peptide (for CDK7 and CDK9) in the presence of 15/0.15/1.5/1.5 μM ATP (for CDK2/CDK5/CDK7CDK9), 0.05 μCi [γ-^33P]ATP and of the test compound in a final volume of 10 μL, all in a reaction buffer (60 mM HEPES-NaOH, pH 7.5, 3 mM MgCl2, 3 mM MnCl2, 3 μM Na-orthovanadate, 1.2 mM DTT, 2.5 μg/50 μl PEG20,000). The reactions were stopped by adding 5 μL of 3% aq H3PO4. Aliquots were spotted onto P-81 phosphocellulose (Whatman), washed 3× with 0.5% aq H3PO4 and finally air-dried.
# as §1
# [7] = biological target: T3, CDK5/p35 (Homo sapiens, UniProt Q00535); assay: as above; format: biochemical; conditions: read-out: Residual kinase activity, CDK5; for remaining activity at 0.1 µM: 100 nM; for remaining activity at 1 µM: 1000 nM
# T3 construct: purchased ProQinase GmbH (Freiburg, Germany)
# Protocol: as §3, §1
# [8] = biological target: T4, CDK9/Cyclin T1 (Homo sapiens, UniProt P50750); assay: as above; format: biochemical; conditions: for remaining activity at 0.1 µM: 100 nM; for remaining activity at 0.1 µM / remaining activity at 1 µM: read-out: Residual kinase activity, CDK9; for remaining activity at 1 µM: 1000 nM
# T4 construct: purchased ProQinase GmbH (Freiburg, Germany)
# Protocol: as §3, §1
# [9] = read-out: Kinase inhibition IC50, CDK1
# T2 sequence (P50613 whole entry): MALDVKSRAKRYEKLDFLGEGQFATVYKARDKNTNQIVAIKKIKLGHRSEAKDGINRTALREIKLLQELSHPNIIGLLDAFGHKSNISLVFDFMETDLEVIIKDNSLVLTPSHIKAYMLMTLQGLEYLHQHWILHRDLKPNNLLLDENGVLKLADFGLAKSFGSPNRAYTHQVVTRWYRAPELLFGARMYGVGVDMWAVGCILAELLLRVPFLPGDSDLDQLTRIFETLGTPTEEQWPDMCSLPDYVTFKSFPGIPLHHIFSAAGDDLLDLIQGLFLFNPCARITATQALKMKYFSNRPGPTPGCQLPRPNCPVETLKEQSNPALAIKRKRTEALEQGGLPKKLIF
# T2 sequence (P51946 whole entry partner): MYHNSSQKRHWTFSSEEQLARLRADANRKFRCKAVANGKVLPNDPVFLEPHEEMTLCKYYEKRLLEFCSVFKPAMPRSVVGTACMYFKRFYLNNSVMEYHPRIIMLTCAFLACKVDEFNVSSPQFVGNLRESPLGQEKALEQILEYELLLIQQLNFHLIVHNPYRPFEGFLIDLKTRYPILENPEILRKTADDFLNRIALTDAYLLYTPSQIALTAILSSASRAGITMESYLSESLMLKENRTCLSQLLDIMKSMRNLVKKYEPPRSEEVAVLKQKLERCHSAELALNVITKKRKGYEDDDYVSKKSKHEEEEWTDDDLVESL
# T2 sequence (P51948 whole entry partner): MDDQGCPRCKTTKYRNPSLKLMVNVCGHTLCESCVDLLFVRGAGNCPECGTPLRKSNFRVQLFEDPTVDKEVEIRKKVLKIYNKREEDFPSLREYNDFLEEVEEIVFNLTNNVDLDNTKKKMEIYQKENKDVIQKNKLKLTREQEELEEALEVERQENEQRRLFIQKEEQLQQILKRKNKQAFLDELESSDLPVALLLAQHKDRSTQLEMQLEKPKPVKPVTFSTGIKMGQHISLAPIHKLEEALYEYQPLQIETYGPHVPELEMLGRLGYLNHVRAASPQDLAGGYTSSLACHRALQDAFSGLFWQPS
# T3 sequence (Q00535 whole entry): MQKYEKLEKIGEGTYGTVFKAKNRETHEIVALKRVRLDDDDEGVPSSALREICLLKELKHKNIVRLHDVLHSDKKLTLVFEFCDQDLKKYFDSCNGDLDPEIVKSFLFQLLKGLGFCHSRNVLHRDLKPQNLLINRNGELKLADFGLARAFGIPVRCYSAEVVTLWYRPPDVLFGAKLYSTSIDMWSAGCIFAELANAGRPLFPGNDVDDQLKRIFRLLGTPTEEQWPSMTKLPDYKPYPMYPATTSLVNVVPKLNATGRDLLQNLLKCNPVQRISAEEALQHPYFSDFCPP
# T3 sequence (Q15078 whole entry partner): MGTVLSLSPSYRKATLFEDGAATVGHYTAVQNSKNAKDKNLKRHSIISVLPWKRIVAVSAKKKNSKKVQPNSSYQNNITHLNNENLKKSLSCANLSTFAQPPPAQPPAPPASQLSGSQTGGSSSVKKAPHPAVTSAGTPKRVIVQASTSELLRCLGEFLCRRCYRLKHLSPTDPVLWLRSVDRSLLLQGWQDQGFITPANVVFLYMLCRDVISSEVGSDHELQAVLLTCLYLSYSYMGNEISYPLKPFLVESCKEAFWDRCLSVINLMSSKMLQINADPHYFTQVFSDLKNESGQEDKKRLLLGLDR
# T1 sequence (P06493 whole entry, species assumed): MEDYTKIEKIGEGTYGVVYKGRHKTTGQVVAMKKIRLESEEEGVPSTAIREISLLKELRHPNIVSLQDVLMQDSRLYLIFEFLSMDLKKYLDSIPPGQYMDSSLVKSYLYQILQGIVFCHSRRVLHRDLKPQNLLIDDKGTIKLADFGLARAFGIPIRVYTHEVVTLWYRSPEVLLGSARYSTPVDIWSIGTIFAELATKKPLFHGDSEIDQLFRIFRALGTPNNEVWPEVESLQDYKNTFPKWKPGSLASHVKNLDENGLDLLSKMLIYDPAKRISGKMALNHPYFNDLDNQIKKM
# T1 sequence (P14635 whole entry partner, species assumed): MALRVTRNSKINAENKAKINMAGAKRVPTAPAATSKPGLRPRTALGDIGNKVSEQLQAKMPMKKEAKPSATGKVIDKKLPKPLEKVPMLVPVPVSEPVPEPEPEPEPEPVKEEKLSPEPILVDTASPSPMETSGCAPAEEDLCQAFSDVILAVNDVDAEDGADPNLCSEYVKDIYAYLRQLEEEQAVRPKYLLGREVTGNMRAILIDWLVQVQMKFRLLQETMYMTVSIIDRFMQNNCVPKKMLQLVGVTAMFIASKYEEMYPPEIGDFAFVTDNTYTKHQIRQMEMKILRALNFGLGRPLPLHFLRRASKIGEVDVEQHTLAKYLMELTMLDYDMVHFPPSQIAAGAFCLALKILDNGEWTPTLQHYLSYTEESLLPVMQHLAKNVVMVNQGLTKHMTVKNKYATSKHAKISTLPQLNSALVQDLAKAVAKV
# T4 sequence (P50750 whole entry): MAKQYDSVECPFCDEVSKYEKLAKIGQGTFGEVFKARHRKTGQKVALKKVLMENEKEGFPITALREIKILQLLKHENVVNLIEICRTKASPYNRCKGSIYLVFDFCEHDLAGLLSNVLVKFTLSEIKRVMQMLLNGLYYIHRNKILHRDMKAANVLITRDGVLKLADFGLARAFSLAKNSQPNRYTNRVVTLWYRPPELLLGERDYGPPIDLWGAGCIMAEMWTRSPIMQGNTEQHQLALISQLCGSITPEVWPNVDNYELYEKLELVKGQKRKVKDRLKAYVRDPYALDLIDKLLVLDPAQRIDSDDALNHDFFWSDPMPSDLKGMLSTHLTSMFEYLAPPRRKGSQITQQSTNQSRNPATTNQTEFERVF
# T4 sequence (O60563 whole entry partner): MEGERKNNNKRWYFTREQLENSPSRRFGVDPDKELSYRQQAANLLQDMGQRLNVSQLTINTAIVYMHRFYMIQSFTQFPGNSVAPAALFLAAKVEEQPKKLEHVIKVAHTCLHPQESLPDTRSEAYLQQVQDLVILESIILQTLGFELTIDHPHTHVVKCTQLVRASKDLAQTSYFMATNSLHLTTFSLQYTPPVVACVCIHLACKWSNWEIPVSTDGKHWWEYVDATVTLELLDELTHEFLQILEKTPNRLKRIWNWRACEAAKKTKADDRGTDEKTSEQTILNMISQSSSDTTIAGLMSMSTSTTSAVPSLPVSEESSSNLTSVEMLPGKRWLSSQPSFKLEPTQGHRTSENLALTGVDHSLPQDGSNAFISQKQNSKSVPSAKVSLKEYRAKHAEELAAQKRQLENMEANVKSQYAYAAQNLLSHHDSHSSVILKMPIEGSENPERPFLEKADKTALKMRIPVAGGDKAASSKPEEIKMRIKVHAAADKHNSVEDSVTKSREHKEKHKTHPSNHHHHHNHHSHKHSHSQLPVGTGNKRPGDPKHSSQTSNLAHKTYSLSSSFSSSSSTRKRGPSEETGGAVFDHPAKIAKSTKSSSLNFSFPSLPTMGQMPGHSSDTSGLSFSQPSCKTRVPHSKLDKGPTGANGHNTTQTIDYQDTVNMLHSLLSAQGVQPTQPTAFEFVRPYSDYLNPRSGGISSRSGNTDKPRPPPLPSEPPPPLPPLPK
SMILES,"IC50 [2, 9] [µM]",remaining activity at 0.1 µM [6] [%],remaining activity at 1 µM [6] [%],remaining activity at 0.1 µM [7] [%],remaining activity at 1 µM [7] [%],remaining activity at 0.1 µM [8] [%],remaining activity at 1 µM [8] [%],IC50 ([1]; 24 h) [µM],IC50 ([1]; 72 h) [µM],Wound area ([3]; 100 nM),Relative caspase-3/7 activity in PLC/PRF/5 cell line ([4]; compound concentration 40 nM),Relative caspase-3/7 activity in PLC/PRF/5 cell line ([4]; compound concentration 80 nM),Relative caspase-3/7 activity in PLC/PRF/5 cell line ([4]; compound concentration 160 nM),Relative caspase-3/7 activity in PLC/PRF/5 cell line ([4]; compound concentration 320 nM),Relative caspase-3/7 activity in PLC/PRF/5 cell line ([4]; compound concentration 640 nM),Relative caspase-3/7 activity in PLC/PRF/5 cell line ([4]; compound concentration 1280 nM),Relative caspase-3/7 activity in Hep3B cell line ([5]; 200 nM),Relative caspase-3/7 activity in Hep3B cell line ([5]; 400 nM),Relative caspase-3/7 activity in Hep3B cell line ([5]; 800 nM),Relative caspase-3/7 activity in Hep3B cell line ([5]; 1600 nM),further results
"NC1CCC(Nc2nc(NCc3ccc(-c4ccco4)nc3)c3ncn(C4CCCC4)c3n2)CC1 (stereo not drawn) [BP14, N^2-(4-amino-cyclohexyl)-9-cyclopentyl-N^6-(6-furan-2-yl-pyridin-3-ylmethyl)-9H-purine-2,6-diamine]",0.05,54.8,23.9,37.8,24.8,22.3,0.73,> 50,0.05,+,1.99,2.86,>5.00,>5.00,>5.00,>5.00,3.60,6.55,9.00,9.50,"IC50 ([2]; Table 12, read-out: IC50, CDK1/cyklin B): 0.05 µM; Wound area ([3]; 1000 nM): ++; Relative caspase-3/7 activity in Hep3B cell line ([5]; 100 nM): 0.99; IC50 ([8]; Table 12, read-out: IC50, CDK9/cyklin T): 0.007 µM"
"COc1ccccc1-c1ccc(CNc2nc(NC3CCC(N)CC3)nc3c2ncn3C2CCCC2)cn1 (stereo not drawn) [BP18, N^2-(4-amino-cyclohexyl)-9-cyclopentyl-N^6-[6-(2-methoxy-phenyl)-pyridin-3-ylmethyl]-9H-purine-2,6-diamine]",0.118,54.1,24.1,49.2,23.6,32.6,1.03,> 50,0.52,+,0.97,2.40,>5.00,>5.00,>5.00,>5.00,0.89,3.19,6.05,8.59,Wound area ([3]; 1000 nM): ++

# Continued, in another order:
"IC50 [2, 9] [µM]",remaining activity at 0.1 µM [6] [%],remaining activity at 1 µM [6] [%],remaining activity at 0.1 µM [7] [%],remaining activity at 1 µM [7] [%],remaining activity at 0.1 µM [8] [%],remaining activity at 1 µM [8] [%],SMILES,IC50 ([1]; 24 h) [µM],IC50 ([1]; 72 h) [µM],Wound area ([3]; 100 nM),Relative caspase-3/7 activity in PLC/PRF/5 cell line ([4]; compound concentration 40 nM),Relative caspase-3/7 activity in PLC/PRF/5 cell line ([4]; compound concentration 80 nM),Relative caspase-3/7 activity in PLC/PRF/5 cell line ([4]; compound concentration 160 nM),Relative caspase-3/7 activity in PLC/PRF/5 cell line ([4]; compound concentration 320 nM),Relative caspase-3/7 activity in PLC/PRF/5 cell line ([4]; compound concentration 640 nM),Relative caspase-3/7 activity in PLC/PRF/5 cell line ([4]; compound concentration 1280 nM),Relative caspase-3/7 activity in Hep3B cell line ([5]; 200 nM),Relative caspase-3/7 activity in Hep3B cell line ([5]; 400 nM),Relative caspase-3/7 activity in Hep3B cell line ([5]; 800 nM),Relative caspase-3/7 activity in Hep3B cell line ([5]; 1600 nM),further results
0.077,55,25,37.7,25.6,26.6,0.83,"NC1CCC(Nc2nc(NCc3ccc(-c4cccc(F)c4)nc3)c3ncn(C4CCCC4)c3n2)CC1 (stereo not drawn) [BP19, N^2-(4-amino-cyclohexyl)-9-cyclopentyl-N^6-[6-(3-fluoro-phenyl)-pyridin-3-ylmethyl]-9H-purine-2,6-diamine]",21.8,0.37,+,1.78,2.39,>5.00,>5.00,>5.00,>5.00,4.82,6.60,9.80,9.45,Wound area ([3]; 1000 nM): ++; Relative caspase-3/7 activity in Hep3B cell line ([5]; 100 nM): 0.90
0.215,72,48.5,88.2,23.4,49,7.74,"OC1CCC(Nc2nc(NCc3ccc(-c4ccco4)nc3)c3ncn(C4CCCC4)c3n2)CC1 (stereo not drawn) [BP21, 4-{9-cyclopentyl-6-[(6-furan-2-yl-pyridin-3-ylmethyl)-amino]-9H-purine-2-ylamino}-cyklohexanol]",–,–,–,0.69,1.20,2.19,3.39,>5.00,>5.00,1.15,1.18,4.36,7.19,–
0.1,70,93.9,87.8,89,93.4,82.8,"Nc1ccccc1-c1ccc(CNc2nc(NC3CCC(N)CC3)nc3c2ncn3C2CCCC2)cn1 (stereo not drawn) [BP22, N^2-(4-amino-cyclohexyl)-9-cyclopentyl-N^6-[6-(2-amino-phenyl)-pyridin-3-ylmethyl]-9H-purine-2,6-diamine]",–,–,–,–,–,0.72,1.08,1.92,3.50,0.81,0.80,0.81,1.18,–
